Experimental data as given in patent US8022072B2, “Azolylmethylidenehydrazine derivative and use thereof” (Kaken Pharmaceutical Co., Ltd., priority 2007, dated 2011).
≈ marks a conversion by molar mass, not a printed value.

Columns and labels:
Assay type in all cases: cell-based
[1] = test system: Trichophyton mentagrophytes KD-04; assay: Antifungal activity evaluation test, MIC, Trichophyton mentagrophytes KD-04; details: KD04, 168 h, Sabouraud Dextrose Broth, 30° C., 7 days, visual, read-out: MIC T. men. KD-04
Procedure: (§1) The minimum inhibitory concentration (MIC) for Trichophyton mentagrophytes, Trichophyton rubrum, and Malassezia furfur was measured according to the following procedure. • Test compound solution: A test compound was dissolved in dimethyl sulfoxide (DMSO) at a concentration of 5 mg/mL as a stock solution. […] Then, as a test medium, a fungal solution of Trichophyton species was 100-fold diluted with Sabouraud Dextrose Broth (Difco), and a fungal solution of Malassezia furfur IFO-0656 was 100-fold diluted with MU medium to give each inoculum (2×10^4 cells/mL). • Measurement of MIC of Trichophyton fungi: Sabouraud Dextrose Broth (Difco) was dispensed by 100 μL to a given well of a 96 well flat microplate. Then, a test compound solution (2 μL) was added, and the mixture was thoroughly mixed with a plate mixer. A fungal solution (100 μL) was inoculated and cultured at 30° C. for 7 days. The presence or absence of the cell growth was visually observed, and the minimum medicament concentration at which the cell growth was prevented was taken as MIC (μg/mL). • Measurement of MIC of Malassezia furfur: Since the urease activity of this fungus and the fungus growth rate are co-related, MIC was evaluated by the following method using urease activity as an index. MU medium was dispensed by 100 μL to a given well of a 96 well flat microplate. Then, a test compound solution (2 μL) was added, and the mixture was thoroughly mixed with a plate mixer. A fungal solution (100 μL) was inoculated and cultured at 30° C. The culture was stopped on day 4 or 5 of culture when the color tone of the MU medium changes from yellow to red in visual observation of the fungus growth in a well free of addition of a test substance. Then the plate was stirred until the fungus became uniform, and the urease activity was measured based on the measurement of absorbance at 550 nm using a plate reader.

[2] = test system: Trichophyton rubrum KD-107; assay: Antifungal activity evaluation test, MIC, Trichophyton rubrum KD-107; details: KD107, 168 h, Sabouraud Dextrose Broth, 30° C., 7 days, visual, read-out: MIC T. rub. KD-107
Procedure: as §1

[3] = test system: Malassezia furfur IFO-0656; assay: Antifungal activity evaluation test, MIC by urease activity, Malassezia furfur IFO-0656; details: IFO0656, 96 h, MU medium, 30° C., day 4 or 5, urease activity of 20% or below, read-out: MIC M. fur. IFO-0656
Procedure: as §1

[4] = test system: Trichophyton mentagrophytes SM-110; assay: Antifungal activity evaluation test, MIC, Trichophyton mentagrophytes SM-110; details: SM110, 168 h, Sabouraud Dextrose Broth, 30° C., 7 days, visual, read-out: MIC T. men. SM-110
Procedure: as §1

[5] = test system: Trichophyton rubrum KD-101; assay: Antifungal activity evaluation test, MIC, Trichophyton rubrum KD-101; details: KD101, 168 h, Sabouraud Dextrose Broth, 30° C., 7 days, visual, read-out: MIC T. rub. KD-101
Procedure: as §1

[6] = test system: Trichophyton mentagrophytes KD-04; assay: Influence of keratin addition on anti-Trichophyton activity; details: for MIC: Trichophyton mentagrophytes, KD04, 168 h, 30° C., 7 days; for MIC increase by the addition of keratin to medium: Trichophyton, text summary of Table 4
Procedure: The MIC increase rate by the addition of keratin to a medium was measured by the following procedure. • Test compound solution: A test compound was dissolved in dimethyl sulfoxide (DMSO) at a concentration of 5 mg/mL as a stock solution. Diluting this solution with DMSO, a 2-fold dilution series was prepared. • Test strain: Trichophyton mentagrophytes KD-04 was used. Preparation of Fungal Inoculum: the Above-Mentioned Strain was suspended in 0.05% Tween 80-containing physiological saline, and adjusted to a fungus concentration of 2×10^6 cells/mL using a counting chamber. […] The physiological saline was removed, and the mixture was further washed once with physiological saline (3 mL). The physiological saline was removed, and a test compound solution (10 μL) and Sabouraud Dextrose Broth (Difco) (500 μL) were added to keratin, and the mixture was sufficiently stirred. Then, inoculum (500 μL) of T. mentagrophytes KD-04 was added, and the mixture was cultured at 30° C. for 7 days. As a comparison control, an experiment similar to the above was performed under conditions free of keratin addition.

| SMILES | MIC [1] | MIC [2] | MIC [3] | MIC [4] | MIC [5] | MIC ([6]; T. mentagrophytes KD-04, free of keratin addition, read-out: MIC SDB alone) | MIC ([6]; T. mentagrophytes KD-04, keratin 50 mg added, read-out: MIC SDB + keratin) | MIC increase by the addition of keratin to medium [6] |
| --- | --- | --- | --- | --- | --- | --- | --- | --- |
| CCC(C)(C)c1ccc(CC(C)CN2C[C@@H](C)O[C@@H](C)C2)cc1 (stereo partly shown) [AMF, amorolfine, reference compound] | 0.1 µg/mL (≈ 0.315 µM) | 0.025 µg/mL (≈ 0.0787 µM) | 0.05 µg/mL (≈ 0.157 µM) | 0.05 µg/mL (≈ 0.157 µM) | 0.025 µg/mL (≈ 0.0787 µM) | 0.05 µg/mL (≈ 0.157 µM) | 0.39 µg/mL |  |
| CC(C)Oc1ccccc1C(=NN(C)C)n1ccnc1 [Compound No. 19, N′-[1-imidazol-1-yl-1-(2-isopropoxyphenyl)methylidene]-N,N-dimethylhydrazine] | 0.2 µg/mL (≈ 0.734 µM) | 0.2 µg/mL (≈ 0.734 µM) | 25 µg/mL (≈ 91.8 µM) | 0.2 µg/mL (≈ 0.734 µM) | 0.78 µg/mL (≈ 2.86 µM) |  |  |  |
| CCCCCOc1ccc(F)cc1C(=NN(C)C)n1ccnc1 [Compound No. 25, N′-[1-(3-fluoro-6-pentyloxyphenyl)-1-imidazol-1-ylmethylidene]-N,N-dimethylhydrazine] | 0.05 µg/mL (≈ 0.157 µM) | 0.05 µg/mL (≈ 0.157 µM) | 0.39 µg/mL (≈ 1.22 µM) | 0.1 µg/mL (≈ 0.314 µM) | 0.05 µg/mL (≈ 0.157 µM) |  |  |  |
| CN(C)N=C(c1ccccc1OCc1ccccc1)n1ccnc1 [Compound No. 34, N′-[1-(2-benzyloxyphenyl)-1-imidazol-1-ylmethylidene]-N,N-dimethylhydrazine] | 0.2 µg/mL (≈ 0.624 µM) | 0.1 µg/mL (≈ 0.312 µM) | 0.62 µg/mL (≈ 1.94 µM) | 0.2 µg/mL (≈ 0.624 µM) | 0.2 µg/mL (≈ 0.624 µM) |  |  |  |
| COc1cccc(COc2ccccc2C(=NN(C)C)n2ccnc2)c1 [Compound No. 53, N′-[1-imidazol-1-yl-1-[2-(3-methoxybenzyloxy)phenyl]methylidene]-N,N-dimethylhydrazine] | 0.2 µg/mL (≈ 0.571 µM) | 0.1 µg/mL (≈ 0.285 µM) | 0.78 µg/mL (≈ 2.23 µM) | 0.39 µg/mL (≈ 1.11 µM) | 0.2 µg/mL (≈ 0.571 µM) |  |  |  |
| CN(C)N=C(c1ccccc1OCCCc1ccccc1)n1ccnc1 [Compound No. 61, N′-[1-imidazol-1-yl-1-[2-(3-phenylpropoxy)phenyl]methylidene]-N,N-dimethylhydrazine] | 0.05 µg/mL (≈ 0.143 µM) | 0.025 µg/mL (≈ 0.0717 µM) | 0.2 µg/mL (≈ 0.574 µM) | 0.1 µg/mL (≈ 0.287 µM) | 0.05 µg/mL (≈ 0.143 µM) |  |  |  |
| CSc1ccccc1C(=NN(C)C)n1ccnc1 [Compound No. 79, N′-[1-imidazol-1-yl-1-(2-methylthiophenyl)methylidene]-N,N-dimethylhydrazine] | 0.39 µg/mL (≈ 1.5 µM) | 0.39 µg/mL (≈ 1.5 µM) | > 25 µg/mL | 0.39 µg/mL (≈ 1.5 µM) | 0.39 µg/mL (≈ 1.5 µM) |  |  |  |
| CN(C)N=C(c1ccccc1SCCOc1ccccc1)n1ccnc1 [Compound No. 85, N′-[1-imidazol-1-yl-1-[2-(2-phenoxyethylthio)phenyl]methylidene]-N,N-dimethylhydrazine] | 0.1 µg/mL (≈ 0.273 µM) | 0.05 µg/mL (≈ 0.136 µM) | 0.05 µg/mL (≈ 0.136 µM) | 0.2 µg/mL (≈ 0.546 µM) | 0.1 µg/mL (≈ 0.273 µM) |  |  |  |
| CCCCCN(C)c1ccccc1C(=NN(C)C)n1ccnc1 [Compound No. 87, N′-[1-imidazol-1-yl-1-[2-(N-methyl-N-pentylamino)phenyl]methylidene]-N,N-dimethylhydrazine] | 0.05 µg/mL (≈ 0.16 µM) | 0.05 µg/mL (≈ 0.16 µM) | 0.78 µg/mL (≈ 2.49 µM) | 0.1 µg/mL (≈ 0.319 µM) | 0.05 µg/mL (≈ 0.16 µM) |  |  |  |
| CCCCCOc1ccc2ccccc2c1C(=NN(C)C)n1ccnc1 [Compound No. 93, N′-[1-imidazol-1-yl-1-(2-pentyloxynaphthalen-1-yl)methylidene]-N,N-dimethylhydrazine] | 0.2 µg/mL (≈ 0.571 µM) | 0.1 µg/mL (≈ 0.285 µM) | 6.25 µg/mL (≈ 17.8 µM) | 0.39 µg/mL (≈ 1.11 µM) | 0.1 µg/mL (≈ 0.285 µM) |  |  |  |
| CCCCCOc1cccnc1C(=NN(C)C)n1ccnc1 [Compound No. 95, N′-[1-imidazol-1-yl-1-(3-pentyloxypyridin-2-yl)methylidene]-N,N-dimethylhydrazine] | 1.56 µg/mL (≈ 5.18 µM) | 0.78 µg/mL (≈ 2.59 µM) | > 25 µg/mL | 3.13 µg/mL (≈ 10.4 µM) | 1.56 µg/mL (≈ 5.18 µM) |  |  |  |
| CCCCCCn1cccc1C(=NN(C)C)n1ccnc1 [Compound No. 104, N′-[1-(1-hexylpyrrol-2-yl)-1-imidazol-1-ylmethylidene]-N,N-dimethylhydrazine] | 0.025 µg/mL (≈ 0.087 µM) | 0.025 µg/mL (≈ 0.087 µM) | > 25 µg/mL | 0.05 µg/mL (≈ 0.174 µM) | 0.025 µg/mL (≈ 0.087 µM) |  |  |  |
| CCN(CC)N=C(c1ccccc1OCc1ccc(Cl)cc1)n1ccnc1 [Compound No. 118, N′-[1-[2-(4-chlorobenzyloxy)phenyl]-1-imidazol-1-ylmethylidene]-N,N-diethylhydrazine] | 0.1 µg/mL (≈ 0.261 µM) | 0.05 µg/mL (≈ 0.131 µM) | 0.39 µg/mL (≈ 1.02 µM) | 0.2 µg/mL (≈ 0.522 µM) | 0.1 µg/mL (≈ 0.261 µM) |  |  |  |
| CN(N=C(c1ccccc1Cl)n1ccnc1)c1ccc(Cl)cc1 [Compound No. 141, N-(4-chlorophenyl)-N′-[1-(2-chlorophenyl)-1-imidazol-1-ylmethylidene]-N-methylhydrazine] | 0.2 µg/mL (≈ 0.579 µM) | 0.2 µg/mL (≈ 0.579 µM) | > 10 µg/mL | 0.39 µg/mL (≈ 1.13 µM) | 0.39 µg/mL (≈ 1.13 µM) |  |  |  |
| Fc1ccc(COc2ccccc2C(=NN2CCCC2)n2ccnc2)cc1 [Compound No. 158, [1-[2-(4-fluorobenzyloxy)phenyl]-1-imidazol-1-ylmethylidene]pyrrolidin-1-ylamine] | 0.2 µg/mL (≈ 0.549 µM) | 0.1 µg/mL (≈ 0.274 µM) | 1.56 µg/mL (≈ 4.28 µM) | 0.2 µg/mL (≈ 0.549 µM) | 0.2 µg/mL (≈ 0.549 µM) |  |  |  |
| CCCCCOc1ccccc1C(=NN1CCCCC1)n1ccnc1 [Compound No. 173, [1-imidazol-1-yl-1-(2-pentyloxyphenyl)methylidene]piperidin-1-ylamine] | 0.2 µg/mL (≈ 0.587 µM) | 0.1 µg/mL (≈ 0.294 µM) | 0.39 µg/mL (≈ 1.15 µM) | 0.2 µg/mL (≈ 0.587 µM) | 0.1 µg/mL (≈ 0.294 µM) |  |  |  |
| CCc1ccccc1C(=NN1CCCCCC1)n1ccnc1 [Compound No. 184, [1-(2-ethylphenyl)-1-imidazol-1-ylmethylidene]homopiperidin-1-ylamine] | 0.05 µg/mL (≈ 0.169 µM) | 0.05 µg/mL (≈ 0.169 µM) | 1.56 µg/mL (≈ 5.26 µM) | 0.1 µg/mL (≈ 0.337 µM) | 0.05 µg/mL (≈ 0.169 µM) |  |  |  |
| CC(C)Oc1ccccc1C(=NN1CCCCCC1)n1ccnc1 [Compound No. 198, homopiperidin-1-yl-[1-imidazol-1-yl-1-(2-isopropoxyphenyl)methylidene]amine] | 0.1 µg/mL (≈ 0.306 µM) | 0.1 µg/mL (≈ 0.306 µM) | 0.78 µg/mL (≈ 2.39 µM) | 0.2 µg/mL (≈ 0.613 µM) | 0.2 µg/mL (≈ 0.613 µM) |  |  |  |
| C=CCOc1ccccc1C(=NN1CCCCCC1)n1ccnc1 [Compound No. 200, homopiperidin-1-yl-[1-imidazol-1-yl-1-[2-(2-propenyloxy)phenyl]methylidene]amine] | 0.1 µg/mL (≈ 0.308 µM) | 0.1 µg/mL (≈ 0.308 µM) | 0.2 µg/mL (≈ 0.616 µM) | 0.1 µg/mL (≈ 0.308 µM) | 0.1 µg/mL (≈ 0.308 µM) |  |  |  |
| CCCCCOc1ccc(OC)cc1C(=NN1CCCCCC1)n1ccnc1 [Compound No. 211, homopiperidin-1-yl-[1-imidazol-1-yl-1-(5-methoxy-2-pentyloxyphenyl)methylidene]amine] | 0.2 µg/mL (≈ 0.52 µM) | 0.1 µg/mL (≈ 0.26 µM) | 1.56 µg/mL (≈ 4.06 µM) | 0.39 µg/mL (≈ 1.01 µM) | 0.2 µg/mL (≈ 0.52 µM) |  |  |  |
| c1ccc(Oc2ccccc2C(=NN2CCCCCC2)n2ccnc2)cc1 [Compound No. 212, homopiperidin-1-yl-[1-imidazol-1-yl-1-(2-phenoxyphenyl)methylidene]amine] | 0.39 µg/mL (≈ 1.08 µM) | 0.39 µg/mL (≈ 1.08 µM) | 25 µg/mL (≈ 69.4 µM) | 0.78 µg/mL (≈ 2.16 µM) | 0.78 µg/mL (≈ 2.16 µM) |  |  |  |
| CCC(C)(C)c1ccc(CC(C)CN2C[C@@H](C)O[C@@H](C)C2)cc1 (stereo partly shown) [amorolfine, reference compound] |  |  |  |  |  |  |  | 8 fold |
| CCC(C)n1ncn(-c2ccc(N3CCN(c4ccc(OCC5COC(Cn6cncn6)(c6ccc(Cl)cc6Cl)O5)cc4)CC3)cc2)c1=O (stereo not shown) [itraconazole, reference compound] |  |  |  |  |  |  |  | 512 fold |
